From PubChem BioAssay (NCI)
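Method: 48-hour compound exposure of cells in 96-well plates, five concentrations, linear interpolation of endpoints. TGI is the concentration that stops growth completely.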

Key:
Experiment in all cases: growth of human tumour cells (NCI), 48 h
OVCAR-4 ovarian = test system: OVCAR-4 ovarian
LOX IMVI melanoma = test system: LOX IMVI melanoma
MDA-MB-231 breast = test system: MDA-MB-231 breast
RXF 393 renal = test system: RXF 393 renal
ACHN renal = test system: ACHN renal
SK-MEL-28 melanoma = test system: SK-MEL-28 melanoma
HCT-116 colon = test system: HCT-116 colon
KM12 colon = test system: KM12 colon
SW-620 colon = test system: SW-620 colon
HT29 colon = test system: HT29 colon
HCT-15 colon = test system: HCT-15 colon
SK-MEL-2 melanoma = test system: SK-MEL-2 melanoma
TK-10 renal = test system: TK-10 renal
A549 NSCLC = test system: A549 NSCLC
SN12C renal = test system: SN12C renal
DU-145 prostate = test system: DU-145 prostate
NCI-H226 lung = test system: NCI-H226 lung
OVCAR-5 ovarian = test system: OVCAR-5 ovarian
SK-OV-3 ovarian = test system: SK-OV-3 ovarian
MALME-3M melanoma = test system: MALME-3M melanoma
U251 CNS = test system: U251 CNS
HOP-62 NSCLC = test system: HOP-62 NSCLC
SNB-19 CNS = test system: SNB-19 CNS
MOLT-4 leukemia = test system: MOLT-4 leukemia
MDA-N = test system: MDA-N
SF-268 CNS = test system: SF-268 CNS
SF-295 CNS = test system: SF-295 CNS
PC-3 prostate = test system: PC-3 prostate
M14 melanoma = test system: M14 melanoma
CCRF-CEM leukemia = test system: CCRF-CEM leukemia
A498 renal = test system: A498 renal
BT-549 breast = test system: BT-549 breast
SK-MEL-5 melanoma = test system: SK-MEL-5 melanoma
UACC-257 melanoma = test system: UACC-257 melanoma
NCI/ADR-RES ovarian = test system: NCI/ADR-RES ovarian
T-47D breast = test system: T-47D breast
UACC-62 melanoma = test system: UACC-62 melanoma
NCI-H460 lung = test system: NCI-H460 lung
OVCAR-3 ovarian = test system: OVCAR-3 ovarian
HOP-92 NSCLC = test system: HOP-92 NSCLC
NCI-H23 lung = test system: NCI-H23 lung
MCF7 breast = test system: MCF7 breast
COLO 205 colon = test system: COLO 205 colon
SR leukemia = test system: SR leukemia
SF-539 CNS = test system: SF-539 CNS
EKVX NSCLC = test system: EKVX NSCLC
HS 578T breast = test system: HS 578T breast
RPMI-8226 leukemia = test system: RPMI-8226 leukemia
IGROV1 ovarian = test system: IGROV1 ovarian
CAKI-1 renal = test system: CAKI-1 renal
SNB-75 CNS = test system: SNB-75 CNS
K-562 leukemia = test system: K-562 leukemia
NCI-H522 lung = test system: NCI-H522 lung
HCC-2998 colon = test system: HCC-2998 colon
MDA-MB-435 = test system: MDA-MB-435
786-0 renal = test system: 786-0 renal
OVCAR-8 ovarian = test system: OVCAR-8 ovarian
UO-31 renal = test system: UO-31 renal
HL-60(TB) leukemia = test system: HL-60(TB) leukemia

## COc1ccccc1/C=C/c1nc2ccccc2o1
OVCAR-4 ovarian
  TGI: > 10 µM
LOX IMVI melanoma
  TGI: > 10 µM
MDA-MB-231 breast
  TGI: > 10 µM
RXF 393 renal
  TGI: > 10 µM
ACHN renal
  TGI: > 10 µM
SK-MEL-28 melanoma
  TGI: > 10 µM
HCT-116 colon
  TGI: > 10 µM
KM12 colon
  TGI: > 10 µM
SW-620 colon
  TGI: > 10 µM
HT29 colon
  TGI: > 10 µM
HCT-15 colon
  TGI: > 10 µM
SK-MEL-2 melanoma
  TGI: > 10 µM
TK-10 renal
  TGI: > 10 µM
A549 NSCLC
  TGI: > 10 µM
SN12C renal
  TGI: > 10 µM
DU-145 prostate
  TGI: > 10 µM
NCI-H226 lung
  TGI: > 10 µM
OVCAR-5 ovarian
  TGI: > 10 µM
SK-OV-3 ovarian
  TGI: > 10 µM
MALME-3M melanoma
  TGI: > 10 µM
U251 CNS
  TGI: > 10 µM
HOP-62 NSCLC
  TGI: > 10 µM
SNB-19 CNS
  TGI: > 10 µM
MOLT-4 leukemia
  TGI: > 10 µM
MDA-N
  TGI: > 10 µM
SF-268 CNS
  TGI: > 10 µM
SF-295 CNS
  TGI: > 10 µM
PC-3 prostate
  TGI: > 10 µM
M14 melanoma
  TGI: > 10 µM
CCRF-CEM leukemia
  TGI: > 10 µM
A498 renal
  TGI: > 10 µM
BT-549 breast
  TGI: > 10 µM
SK-MEL-5 melanoma
  TGI: > 10 µM
UACC-257 melanoma
  TGI: > 10 µM
NCI/ADR-RES ovarian
  TGI: > 10 µM
T-47D breast
  TGI: > 10 µM
UACC-62 melanoma
  TGI: > 10 µM
NCI-H460 lung
  TGI: > 10 µM
OVCAR-3 ovarian
  TGI: > 10 µM
HOP-92 NSCLC
  TGI: > 10 µM
NCI-H23 lung
  TGI: > 10 µM
MCF7 breast
  TGI: > 10 µM
COLO 205 colon
  TGI: > 10 µM
SR leukemia
  TGI: > 10 µM
SF-539 CNS
  TGI: > 10 µM
EKVX NSCLC
  TGI: > 10 µM
HS 578T breast
  TGI: > 10 µM
RPMI-8226 leukemia
  TGI: > 10 µM
IGROV1 ovarian
  TGI: > 10 µM
CAKI-1 renal
  TGI: > 10 µM
SNB-75 CNS
  TGI: > 10 µM
K-562 leukemia
  TGI: > 10 µM
NCI-H522 lung
  TGI: > 10 µM
HCC-2998 colon
  TGI: > 10 µM
MDA-MB-435
  TGI: > 10 µM
786-0 renal
  TGI: > 10 µM
OVCAR-8 ovarian
  TGI: > 10 µM

## Cc1ccc([N+](=O)[O-])cc1S(=O)(=O)Nc1ccc(C2=NN(S(=O)(=O)c3cc([N+](=O)[O-])ccc3C)C(c3ccco3)C2)cc1 (centres undefined)
OVCAR-4 ovarian
  TGI: > 100 µM
LOX IMVI melanoma
  TGI: > 100 µM
RXF 393 renal
  TGI: > 100 µM
ACHN renal
  TGI: > 100 µM
SK-MEL-28 melanoma
  TGI: > 100 µM
HCT-116 colon
  TGI: > 100 µM
UO-31 renal
  TGI: > 100 µM
KM12 colon
  TGI: > 100 µM
SW-620 colon
  TGI: > 100 µM
HT29 colon
  TGI: > 100 µM
HCT-15 colon
  TGI: > 100 µM
SK-MEL-2 melanoma
  TGI: > 100 µM
SN12C renal
  TGI: > 100 µM
DU-145 prostate
  TGI: > 100 µM
NCI-H226 lung
  TGI: > 100 µM
OVCAR-5 ovarian
  TGI: > 100 µM
SK-OV-3 ovarian
  TGI: > 100 µM
MALME-3M melanoma
  TGI: > 100 µM
HOP-62 NSCLC
  TGI: > 100 µM
SNB-19 CNS
  TGI: > 100 µM
MOLT-4 leukemia
  TGI: > 100 µM
MDA-N
  TGI: > 100 µM
SF-268 CNS
  TGI: > 100 µM
SF-295 CNS
  TGI: > 100 µM
PC-3 prostate
  TGI: > 100 µM
M14 melanoma
  TGI: > 100 µM
CCRF-CEM leukemia
  TGI: > 100 µM
BT-549 breast
  TGI: 97.5 µM
SK-MEL-5 melanoma
  TGI: > 100 µM
UACC-257 melanoma
  TGI: 45.6 µM
NCI/ADR-RES ovarian
  TGI: > 100 µM
T-47D breast
  TGI: 92.9 µM
UACC-62 melanoma
  TGI: > 100 µM
OVCAR-3 ovarian
  TGI: > 100 µM
HOP-92 NSCLC
  TGI: 47.7 µM
NCI-H23 lung
  TGI: > 100 µM
MCF7 breast
  TGI: > 100 µM
COLO 205 colon
  TGI: > 100 µM
SR leukemia
  TGI: > 100 µM
SF-539 CNS
  TGI: > 100 µM
EKVX NSCLC
  TGI: 94 µM
HS 578T breast
  TGI: > 100 µM
RPMI-8226 leukemia
  TGI: > 100 µM
IGROV1 ovarian
  TGI: > 100 µM
CAKI-1 renal
  TGI: > 100 µM
SNB-75 CNS
  TGI: > 100 µM
HL-60(TB) leukemia
  TGI: 98.2 µM
K-562 leukemia
  TGI: > 100 µM
NCI-H522 lung
  TGI: > 100 µM
MDA-MB-435
  TGI: > 100 µM
786-0 renal
  TGI: > 100 µM
OVCAR-8 ovarian
  TGI: > 100 µM
